Measured values taken from article PMC9732823, “Discovery of Dual Aβ/Tau Inhibitors and Evaluation of Their Therapeutic Effect on a Drosophila Model of Alzheimer’s Disease” (ACS Chemical Neuroscience, 2022).

Assays:
PAMPA-BBB assay = assay: PAMPA-BBB assay
Excerpt: Thus, to reduce attrition in the development process, the evaluation of BBB penetration at a very early drug discovery stage is of crucial importance. In light of this, the ability of the previously selected compounds to cross the BBB was predicted by a parallel artificial membrane permeability assay (PAMPA)-BBB,[41] a high-throughput technique widely used as an indicator of a molecule’s passive diffusion through the BBB. Six commercially available drugs were used to validate the assay.
PAMPA (the parallel artificial membrane permeability assay) is a high-throughput screening tool applicable for the prediction of the passive transport of potential drugs across the BBB.[41] In this study, it has been used as a non-cell-based in vitro assay carried out in a coated 96-well membrane filter. The filter membrane of the donor plate was coated with PBL (Polar Brain Lipid, Avanti) in dodecane (4 μL of 20 mg/mL PBL in dodecane) and the acceptor well was filled with 300 μL of phosphate buffer saline, (PBS pH 7.4; VA). The tested compounds were dissolved first in DMSO and then diluted with PBS pH 7.4 to reach the final concentrations of 50–500 μM in the donor well. […] Then, 300 μL of the donor solution (VD) was added to the donor wells and the donor filter plate was carefully put on the acceptor plate so that the coated membrane was “in touch” with both donor solution and acceptor buffer. In principle, the test compound diffuses from the donor well through the polar brain lipid membrane (area = 0.28 cm^2) to the acceptor well. The concentrations of the tested compound in both donor and the acceptor wells were assessed after 3, 4, 5, and 6 h of incubation in quadruplicate using a UV plate reader, Synergy HT (Biotek) at the maximum absorption wavelength of each compound (n=3). In addition to that, solution of the theoretical compound concentration, simulating the equilibrium state established if the membrane were ideally permeable, was prepared and assessed as well. The concentrations of the compounds in the donor and acceptor wells and the equilibrium concentration were calculated from the standard curve and expressed as the permeability (Pe) according to the equation[41] [drawing 1] where [drawing 2]

Tau protein = target: T1, Tau protein (Homo sapiens, UniProt P10636); assay: Inhibition of Tau aggregation in intact E. coli cells overexpressing Tau (ThS fluorescence); format: cell-based, Escherichia coli
T1 construct: expressed in transfected cells; host or cells: Escherichia coli BL21 (DE3) with pTARA and pRKT42
T1 sequence (P10636 1-441 isoform P10636-8): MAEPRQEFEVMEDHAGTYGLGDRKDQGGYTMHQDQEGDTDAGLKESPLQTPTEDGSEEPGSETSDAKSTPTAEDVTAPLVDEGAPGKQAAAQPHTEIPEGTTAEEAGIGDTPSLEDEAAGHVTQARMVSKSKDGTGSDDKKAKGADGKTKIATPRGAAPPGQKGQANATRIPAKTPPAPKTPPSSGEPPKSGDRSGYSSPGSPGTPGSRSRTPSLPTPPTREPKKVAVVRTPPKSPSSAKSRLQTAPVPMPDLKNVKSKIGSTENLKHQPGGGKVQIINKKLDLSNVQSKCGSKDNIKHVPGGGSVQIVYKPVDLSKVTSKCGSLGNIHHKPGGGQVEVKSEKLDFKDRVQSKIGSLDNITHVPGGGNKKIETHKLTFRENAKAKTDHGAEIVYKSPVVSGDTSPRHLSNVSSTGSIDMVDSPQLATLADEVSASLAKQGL
How it was run: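 E. coli BL21(DE3) expressing four-repeat Tau, arabinose-induced in M9 with 25 μM ThS, grown overnight at 37 °C with compound at 10 μM final. ThS emission at 485 nm (excitation 440 nm) normalized to ABS600; 100% = induced DMSO control, 0% = noninduced cells.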

[1] = tested on: Arctic Aβ42 Drosophila flies; assay: Lifespan analysis in Arctic Aβ42 Drosophila flies; conditions: 20 μM in fly food; days 5, 10, 20 post-eclosion
Method: As longevity is a phenotype that can be rapidly measured in this in vivo AD model, we first assessed changes in Drosophila’s lifespan with and without treatment with 22 and 23 (20 μM). […] Doxycycline was tested at 50 μM, a concentration used in similar previous experiments.[59]
The transactivating protein GAL4 is placed under the control of a specific promoter, with its own spatial and temporal patterns, in this case, Elav, whereas the upstream activation sequence (UAS) localized upstream, the locus controlled by the UAS-Gal4; in our study, UAS expresses construct for the E22G variant of Aβ42 (Arctic Aβ42) (AlzArc2).[56],[64] Around 150 flies (half female/male) for each compound tested were collected and divided into groups of 25 flies. At the top of the media, 25 μL of doxycycline (50 μM), 22 (20 μM), or 23 (20 μM) were added fresh anytime the flies were flipped.
Briefly, males and females 25 per vial were kept at 25 °C.

CN(C)CCN1C(=O)S/C(=C\c2ccc3c(c2)C(C)(C)c2cc(/C=C4\SC(=O)N(CCN(C)C)C4=O)ccc2-3)C1=O [Compound 23, (5Z,5′Z)-5,5′-((9,9-Dimethyl-9H-fluorene-2,7-diyl)bis(methanylylidene))bis(3-(2-(dimethylamino)ethyl)thiazolidine-2,4-dione)]
Papp (PAMPA-BBB assay; PAMPA, pH 7.4): 18.9 ± 5.39 ×10⁻⁶ cm/s | BBB permeability prediction (PAMPA-BBB assay; PAMPA-BBB): predicted to passively diffuse across the BBB | CNS (+/-) (PAMPA-BBB assay; PAMPA-BBB penetration estimation): CNS + (CNS + (high BBB permeation predicted): Pe (×10-6 cm s-1) > 4.0) | % inhibition Tau aggregation @ 10 μM (Tau protein; intact E. coli cells, compound 10 μM, mean ± SEM of four independent experiments, 10 µM): 41.9 ± 3.9% | inhibition at 10 µM (Tau protein; read-out: % inhibition Tau aggregation @ 10 μM, intact E. coli cells, compound 10 μM, mean ± SEM of four independent experiments): > 40% | lifespan of Aβ42 Drosophila flies [1]: increase in longevity
